Reference: patent publication US8618290B2, “HSP90 inhibitors” (Takeda Pharmaceutical Company Limited, priority 2008, dated 2013)

Target: human HSP90a (recombinant N-terminal nucleotide binding domain) (Homo sapiens (Human), UniProt P07900)
Assay: Competition fluorescence polarization binding assay with TSD-FP probe
Conditions: method of Example A-1; incubation time not stated; read-out: Binding Affinity IC50
Experimental: The reaction can be followed kinetically using fluorescence (excitation λ=485 nm; emission λ=538 nm). The binding affinity of the test compound to HSP90 is determined by the changes in the polarized fluorescence; the intensity of the polarized fluorescence is proportional to the fraction of bound probe. A novel small molecule fluorescence probe, (S,E)-5-(2-(2-amino-7-(4-fluoro-2-(6-methoxypyridin-2-yl)phenyl)-4-methyl-7,8-dihydroquinazolin-5(6H)-ylideneaminooxy)ethylcarbamoyl)-2-(6-hydroxy-3-oxo-3H-xanthen-9-yl)benzoic acid (TSD-FP probe) was specifically developed for the assay. Inhibition constants (IC50) may be calculated by non-linear curve fitting of the compound concentrations and fluorescence intensities to the standard IC50 equation.
The sequence of human wild-type HSP90a is well known in the art; see, Chen B. et al. Genomics 2005.86:627-637. The gene encoding HSP90a can be isolated from RNA, cDNA or cDNA libraries. In this case, the gene encoding residues 9-236 of image clone 5270926 of HSP90α (ATCC) was isolated. This portion of the gene encoding a section of human HSP90a that includes the N-terminal nucleotide binding domain of human HSP90a was cloned into pET28a vector (Novagen). The DNA sequence of the vector is shown in SEQ ID NO: 1. Expression from this vector produced a protein consisting of the recombinant N-terminal nucleotide binding domain of HSP90a with a cleavable 6′-histidine tag and a cleavage site at the N-terminus The amino acid sequence of this recombinant protein is shown in SEQ ID NO: 2.
Recombinant human N-terminal truncated His6-HSP90a was expressed in E. coli (BL21) cells with IPTG induction. Cell paste from 24×60 mL tubes (grown in a multi-tube airlift fermentor) was lysed using an automated sample lyser. Briefly, the pellet in each tube was suspended in 21 mL of lysis buffer consisting of 50 mM Tris pH 7.9, 50 mM NaCl, 1 mM MgCl2, 0.6 g/L Lysozyme (Sigma), 100 μL/L Benzonase (Novagen). […] After incubation, 5 M NaCl was added to bring the final salt concentration to 400 mM. The tubes were sonicated for 50 seconds and then centrifuged at 3400 rpm for 50 min. The supernatants were pooled and 4 ml of ProBond Ni resin (Invitrogen) was added. After at least 30 minutes, the resin was spun down, washed with 25 mM Tris pH 7.6, 400 mM NaCl, 20 mM imidazole, poured into a column and washed with 10 column volumes of the same buffer. The protein was eluted from the column using 3 column volumes of 25 mM Tris pH 7.6, 400 mM NaCl, 400 mM imidazole. The eluate was loaded onto a Supedex 200 column (GE Healthcare) equilibrated with 25 mM Tris pH 7.6, 250 mM NaCl, 0.25 mM TCEP, 1 mM EDTA and peak fractions were pooled and concentrated to ˜6 mg/mL using 10 kDA MWCO centrifugal concentrators (Millipore). Aliquots were flash frozen in liquid nitrogen and stored at −80° C. All purification was done at 4° C.
A fluorescein labeled small molecule was designed and synthesized as a probe (TSD-FP probe) for the determination of the binding affinity of the test compound to HSP90 proteins. The synthesis of the small molecule, (S,E)-2-amino-7-(4-fluoro-2-(6-methoxypyridin-2-yl)phenyl)-4-methyl-7,8-dihydroquinazolin-5(6H)-one O-2-aminoethyl oxime (Compound 24) was described in Examples 24 and 25 above. The TSD-FP probe was prepared according to the following procedure:
The inhibitory effect of the compounds of the invention against HSP90a was determined by fluorescence polarization assay. The assay was run in a black 384-well-plate and in an assay buffer comprising 25 mM Hepes pH 7.3, 150 mM NaCl, 0.1 mM EDTA, 0.01% Brij35, 1 mM DTT.
To each test well, an aliquot of buffer, 2 μl of test compound in 10% DMSO, 4 μl of 6.25 nM of TSD FP probe, 4 μl of 12.5 nM of purified HSP90a protein were added. […] For negative control, no inhibitor was added.

| SMILES | IC50 |
| --- | --- |
| COc1cccc(-c2cc(F)ccc2[C@H]2Cc3nc(N)nc(C)c3/C(=N/O)N2)n1 [Compound 61, (R,Z)-2-amino-7-(4-fluoro-2-(6-methoxypyridin-2-yl)phenyl)-4-methyl-7,8-dihydropyrido[4,3-d]pyrimidin-5(6H)-one oxime] | 3 nM |
| COc1cccc(-c2cc(F)ccc2[C@H]2Cc3nc(N)nc(C)c3/C(=N/OCC3CCC(O)CC3)N2)n1 (stereo partly drawn) [Compound 65, (R,Z)-2-amino-7-(4-fluoro-2-(6-methoxypyridin-2-yl)phenyl)-4-methyl-7,8-dihydropyrido[4,3-d]pyrimidin-5(6H)-one O-((1s,4S)-4-hydroxycyclohexyl)methyl oxime] | 10 nM |
| COc1cccc(-c2cc(F)ccc2[C@H]2Cc3nc(N)nc(C)c3/C(=N/OCCCCO)N2)n1 [Compound 79, (R,Z)-2-amino-7-(4-fluoro-2-(6-methoxypyridin-2-yl)phenyl)-4-methyl-7,8-dihydropyrido[4,3-d]pyrimidin-5(6H)-one O-4-hydroxybutyl oxime] | 6 nM |
| COc1cccc(-c2cc(F)ccc2[C@H]2Cc3nc(N)nc(C)c3/C(=N/O[C@@H](CCO)C(=O)N(C)C)N2)n1 [Compound 93, (S)-2-((Z)—((R)-2-amino-7-(4-fluoro-2-(6-methoxypyridin-2-yl)phenyl)-4-methyl-7,8-dihydropyrido[4,3-d]pyrimidin-5(6H)-ylidene)aminooxy)-4-hydroxy-N,N-dimethylbutanamide] | 8 nM |
| COc1cccc(-c2cc(F)ccc2[C@H]2Cc3nc(N)nc(C)c3/C(=N/OC[C@H]3O[C@@H](OC)[C@H](O)[C@@H]3O)N2)n1 (mixture of isomers) [Compound 45, (R,Z)-2-amino-7-(4-fluoro-2-(6-methoxypyridin-2-yl)phenyl)-4-methyl-7,8-dihydropyrido[4,3-d]pyrimidin-5(6H)-one O-((2R,3S,4R,5R)-3,4-dihydroxy-5-methoxytetrahydrofuran-2-yl)methyl oxime] | 10 nM |
| COc1cccc(-c2cc(F)ccc2[C@H]2Cc3nc(N)nc(C)c3/C(=N/OC[C@H](O)CO)N2)n1 [Compound 33, (R,Z)-2-Amino-7-(4-fluoro-2-(6-methoxypyridin-2-yl)phenyl)-4-methyl-7,8-dihydropyrido[4,3-d]pyrimidin-5(6H)-one O—(R)-2,3-dihydroxypropyl oxime] | 4 nM |
| COc1cccc(-c2cc(F)ccc2[C@H]2Cc3nc(N)nc(C)c3/C(=N/OCC(=O)N(C)C)N2)n1 [Compound 83, (R,Z)-2-(2-amino-7-(4-fluoro-2-(6-methoxypyridin-2-yl)phenyl)-4-methyl-7,8-dihydropyrido[4,3-d]pyrimidin-5(6H)-ylideneaminooxy)-N,N-dimethylacetamide] | 8 nM |
| COc1cccc(-c2cc(F)ccc2[C@H]2Cc3nc(N)nc(C)c3/C(=N/OCC(=O)N(C)C[C@H](O)CO)N2)n1 [Compound 96, 2-((Z)—((R)-2-amino-7-(4-fluoro-2-(6-methoxypyridin-2-yl)phenyl)-4-methyl-7,8-dihydropyrido[4,3-d]pyrimidin-5(6H)-ylidene)aminooxy)-N—((S)-2,3-dihydroxypropyl)-N-methylacetamide] | 13 nM |
| COc1cccc(-c2cc(F)ccc2[C@H]2Cc3nc(N)nc(C)c3/C(=N/OCC(=O)N(C)CCO)N2)n1 [Compound 99, (R,Z)-2-(2-amino-7-(4-fluoro-2-(6-methoxypyridin-2-yl)phenyl)-4-methyl-7,8-dihydropyrido[4,3-d]pyrimidin-5(6H)-ylideneaminooxy)-N-(2-hydroxyethyl)-N-methylacetamide] | 8 nM |
| COc1cccc(-c2cc(F)ccc2[C@H]2Cc3nc(N)nc(C)c3/C(=N/OCC[C@H](O)CO)N2)n1 [Compound 37, (R,Z)-2-amino-7-(4-fluoro-2-(6-methoxypyridin-2-yl)phenyl)-4-methyl-7,8-dihydropyrido[4,3-d]pyrimidin-5(6H)-one O—(S)-3,4-dihydroxybutyl oxime] | 6 nM |
| COc1cccc(-c2cc(F)ccc2[C@H]2Cc3nc(N)nc(C)c3/C(=N/OCC(=O)N3CC[C@@H](F)C3)N2)n1 [Compound 85, 2-((Z)—((R)-2-amino-7-(4-fluoro-2-(6-methoxypyridin-2-yl)phenyl)-4-methyl-7,8-dihydropyrido[4,3-d]pyrimidin-5(6H)-ylidene)aminooxy)-1-((R)-3-fluoropyrrolidin-1-yl)ethanone] | 4 nM |
| COc1cccc(-c2cc(F)ccc2[C@H]2Cc3nc(N)nc(C)c3/C(=N/OCC3C[C@@H](O)[C@@H](O)C3)N2)n1 (stereo partly drawn) [Compound 59, (7R,Z)-2-amino-7-(4-fluoro-2-(6-methoxypyridin-2-yl)phenyl)-4-methyl-7,8-dihydropyrido[4,3-d]pyrimidin-5(6H)-one O-((3R,4S)-3,4-dihydroxycyclopentyl)methyl oxime] | 8 nM |
| COc1cccc(-c2cc(F)ccc2[C@H]2Cc3nc(N)nc(C)c3/C(=N/OCCCO)N2)n1 [Compound 78, (R,Z)-2-amino-7-(4-fluoro-2-(6-methoxypyridin-2-yl)phenyl)-4-methyl-7,8-dihydropyrido[4,3-d]pyrimidin-5(6H)-one O-3-hydroxypropyl oxime] | 4 nM |
| COc1cccc(-c2cc(F)ccc2[C@H]2Cc3nc(N)nc(C)c3/C(=N/OC3C[C@@H](O)[C@@H](O)C3)N2)n1 (stereo partly drawn) [Compound 58, (7R,Z)-2-amino-7-(4-fluoro-2-(6-methoxypyridin-2-yl)phenyl)-4-methyl-7,8-dihydropyrido[4,3-d]pyrimidin-5(6H)-one O-(3R,4S)-3,4-dihydroxycyclopentyl oxime] | 5 nM |
| COc1cccc(-c2cc(F)ccc2[C@H]2Cc3nc(N)nc(C)c3/C(=N/OCC(CO)CO)N2)n1 [Compound 35, (R,Z)-2-Amino-7-(4-fluoro-2-(6-methoxypyridin-2-yl)phenyl)-4-methyl-7,8-dihydropyrido[4,3-d]pyrimidin-5(6H)-one O-3-hydroxy-2-(hydroxymethyl)propyl oxime] | 13 nM |
